Measurements reported in patent US6680292B1 (The Salk Institute for Biological Studies, priority 1998, dated 2004).
“Also recorded” adds a separate entry of the source.

Tests used:
PC12 cells [1] = assay: Survival and proliferation of PC12 cells (cell counts); type: cell-based, rat
Description: PC12 cells were maintained in RPMI-1640 medium supplemented with 5% fetal calf serum (FCS), 5% heat-inactivated horse serum (HS), 100 units/ml penicillin G sodium, 100 μg/ml streptomycin sulfate and 0.245 μg/ml amphotericin B. NGF-treated cells were grown in the presence of 500 pg/ml mouse 2.5S NGF. The 1-(β-D-ribofuranosyl)-1H-1,2,4-triazole-3-carboxamide was supplied by ICN Pharmaceuticals. HCN cells were maintained in serum-free N2 basal media with 500 pg/ml of FGF-2. Cells were plated on plastic tissue culture plates coated with polyornithine.
PC12 cells were grown as described above and plated at a density of 10,000 cells/well in RPMI with 500 pg/ml NGF. […] Cells were counted and neurite elongation evaluated on days 0, 1 and 3. The media was not changed for the duration of the experiment.

PC12 cells [2] = assay: Neurite outgrowth / elongation in PC12 cells; type: cell-based, rat
Description: Neurite outgrowth was determined by measuring neurites from the cell body to the longest point and by counting the number of neurites per cell according to the method of Gysbers et al. (Gysbers et al., NeuroReport 3:997-1000 (1992) and Gysbers et al., Int. J. Dev. Neurosci. 14:19-34 (1996)). Cells are stained with antibodies for Rip, Glial Fibrillary Acidic Protein (GFAP), Microtubule Associated Protein 2ab (MAP2ab), and Calbindin (a Ca-buffering protein).
Briefly, cells were plated on poly-DL-ornithine-coated wells in 24-well plates at a concentration of 2.5×10^4 cells per well in RPMI-1640 medium containing 1.5% FCS, and 1.5% HS. Test compounds and NGF were added immediately after plating. […] The number of cells bearing neurites greater than one cell body diameter after each treatment with test compound was divided by the total number of cells counted.
The ratio of the number of cells bearing neurites in each treatment were divided by the total number of cells counted per treatment to determine the proportion of neurite bearing cells for each sample. The mean values (±S.E.M.) were then calculated for each treatment. […] The effect of the test compounds plus NGF is expressed as a percentage of the values obtained using 500 pg/ml NGF (which is given an arbitrary * value of 100% since neurite outgrowth proportions varied between experiments, usually from 20 to 35% for NGF-alone treatments). […]

HCN cells [3] = assay: FGF-2 induced neurite elongation in HCN cells; type: cell-based; settings: HCN cells with FGF-2; 0.1, 0.5, 1, 100, 400 nM Ribavirin
Fibroblasts = assay: Effect on non-neuronal cells: fibroblasts; type: cell-based; settings: same experimental condition as PC12 and HCN cells
astrocytes = assay: Effect on non-neuronal cells: astrocytes; type: cell-based; settings: same experimental condition as PC12 and HCN cells
PC12 cells [4] = assay: Growth cone turning in PC12 cells; type: cell-based, rat; settings: for growth cone turning: PC12 cells exposed to a focal site of compound, FIGS. 8A-8E
Description: The ability of compounds to stimulate neurite elongation as determined by growth cone turning was evaluated in vitro. PC 12 cells were cultured as described above (see Example 1). Cells growing in culture were exposed to a focal site of Ribavirin and control compounds and the number of growth cones with a turning angle was measured and the turned angle of each growth cone was measured.

HCN cells [5] = test system: HCN cells

Molecule	effect on cell survival or proliferation (PC12 cells [1]; PC12 cells, absence of NGF, various concentrations, FIG. 1)	effects of NGF on the survival and proliferation of PC12 cells (PC12 cells [1]; with 500 pg/ml NGF, assessed at day 1 and day 3, FIG. 2)	neurite elongation and networking (PC12 cells [2]; PC12 cells with NGF, 100 pM, 500 pM, 1 nM, 100 nM and 400 nM)	elongation and networking of the neurites (HCN cells [3])	effect on fibroblasts (Fibroblasts)	effect on astrocytes (astrocytes)	effective concentrations for growth cone turning (PC12 cells [4]; PC12 cells)	growth cone turning (PC12 cells [4])	concentrations at which effects were more pronounced (HCN cells [5]; HCN cells with FGF-2)	effect on FGF-2 actions (proliferation, survival) (HCN cells [5]; HCN cells with FGF-2, up to 7 days, FIGS. 4 and 5)	effect on cell survival or proliferation (HCN cells [5]; HCN cells, Ribavirin alone (no FGF-2), 12,500 or 25,000 cells/well, FIG. 3)	neurite outgrowth proportions (proportion of neurite bearing cells) (PC12 cells [2]; NGF-alone treatments, 500 pg/ml NGF, varied between experiments)
NC(=O)c1ncn([C@@H]2O[C@H](CO)[C@@H](O)[C@H]2O)n1 [Ribavirin, 1-(β-D-ribofuranosyl)-1H-1,2,4-triazole-3-carboxamide]	No statistically significant effect	augmented/enhanced	enhanced at all concentrations tested	increased elongation and networking	without effect	without effect	nanomolar range	stimulated growth cone turning; also recorded: increased turning towards the Ribavirin site (attraction)	less than 1 nM	augmented/enhanced FGF-2 actions	no effect	
Nc1nc2c(nc(Br)n2[C@@H]2O[C@@H]3COP(=O)(O)O[C@H]3[C@H]2O)c(=O)[nH]1 [8-bromo-cGMP]								turning away from the site (i.e., repulsion				
NGF: nerve growth factor; mouse 2.5S NGF at 500 pg/ml (protein, UniProt P01139 122-241, looked up, Beta-nerve growth factor, nerve growth factor; mouse 2.5S NGF at 500 pg/ml) Beta-nerve growth factor: SSTHPVFHMGEFSVCDSVSVWVGDKTTATDIKGKEVTVLAEVNINNSVFRQYFFETKCRASNPVESGCRGIDSKHWNSYCTTTHTFVKALTTDEKQAAWRFIRIDTACVCVLSRKATRRG												20 to 35%
